# US20030162759A1, “Aldosterone blocker therapy to prevent or treat inflammation-related disorders” (priority 2000, published 2003)
# Where “and” joins values, the source holds several entries; their conditions need not be identical. Equal entries are not always repeated. Entries after “also recorded” stand apart in the source; their conditions may differ.
# Legend:
# [1] = test system: aldosterone + salt treated rats; assay: Assay C further aldosterone infusion study: radiotelemetrized systolic blood pressure; assay type: in vivo, rat
# Source text: Assay C: Further in vivo Aldosterone Infusion Study The procedure of Assay B was expanded upon in a further study. […] Myocardial tissue from animals in each treatment group was examined after 7, 14, or 30 days of treatment. […] Lesions were preceded by the expression and progressive upregulation of proinflammatory molecules. […] Male Sprague-Dawley rats, weighing 230 to 250 g, (Harlan Sprague-Dawley Industries, Indianapolis, Ind.) were housed in a room 12-hours light/12-hours dark daily cycle at an ambient temperature of 22±1° C. (n=96). Animals were allowed one week to adjust after arrival and had free access to TEKLAD 22/5 rodent diet (Harlan TEKLAD, Madison, Wis.) and tap water until the initiation of the experiment. Prior to surgery the animals were individually weighed and placed in one of the following groups: […] Potassium chloride supplementation was added to the saline solution in order to prevent the potential hypokalemia associated with aldosterone excess. […] Louis, Mo.) was inserted subcutaneously at the nape of the neck. Aldosterone was administered at a dose of […]. […] Animals were sacrificed from each group (n=8-13) after 7, 14, or 30 days of treatment. Animals to be sacrificed after 7 or 14 days of treatment were uninephrectomized and implanted with an Alzet minipump. Animals treated for 30 days were uninephrectomized, fitted for Alzet minipumps, and implanted with radio telemetry units (model#TA11PA-C40, Data Sciences Inc., St. Paul, Minn.) according to the following procedure. […] The surgery site was clipped, scrubbed with nolvasan, and sprayed with betadine. A rostral-caudal incision was made through the skin from the base of the rib cage to the pubic region using a #11 scalpel blade. A second incision was made through the muscles of the abdominal wall to expose the peritoneal cavity. […] Organs were carefully displaced with tissue retractors in order to expose the abdominal aorta. A 1.5 cm segment just rostral to the bifurcation of the abdominal aorta into the iliac arteries was cleared of excessive connective tissue and 4-0 silk was used to make an anchor adjacent to the aorta. A microvascular clip was then placed at both ends of the cleaned region to stop excessive blood flow. Using a bent, 21 gauge needle, the abdominal aorta was penetrated. The cannula of the radio telemetry unit was inserted and stabilized in the aorta using the 4-0 silk anchor. Organs were repositioned and the telemetry unit was placed over the organs. Using a non-interrupted suture pattern with 4-0 silk, the abdominal wall was closed, and the skin was subsequently closed using a 4-0 silk in an interrupted suture pattern. […] Post-operative care included monitoring the animals on a heating pad during recovery from anesthesia until sternal recumbency was reestablished. Radiotelemetrized arterial blood pressure was calculated with the […] Version 1.1-Gold software (Data Sciences International, St. Paul, Minn.). Data points were collected over a 24 hour period with the collection rate set for a 10 second reading every 5 min for each animal. The 24 hour period used was from 6:00 a.m. to 6:00 a.m.
# [2] = test system: osteopontin; assay: Assay C: osteopontin relative mRNA expression in heart (TaqMan); assay type: in vivo, rat; conditions: for Osteopontin, Mean / Osteopontin: mRNA; for Osteopontin, Mean: group mean; for Osteopontin: individual rats
# Protocol: The procedure of Assay B was expanded upon in a further study. […] Myocardial tissue from animals in each treatment group was examined after 7, 14, or 30 days of treatment.
# Potassium chloride supplementation was added to the saline solution in order to prevent the potential hypokalemia associated with aldosterone excess.
# At the time of the surgery, an Alzet 2002 osmotic minipump (Alza Corp., Palo Alto, Calif.) containing either vehicle (9% ethanol/87% propylene glycol/4% dH2O) or 1.0 mg/mL d-aldosterone (Sigma Chemical, St. Louis, Mo.) was inserted subcutaneously at the nape of the neck. Aldosterone was administered at a dose of 0.75 g/hour. […] Animals were sacrificed from each group (n=8-13) after 7, 14, or 30 days of treatment.
# The fluorogenic 5′-nuclease assay (TaqMan PCR) using Applied Biosystems' 7700 Sequence Detection System (Applied Biosystems, Foster City, Calif.) allowed for real time detection/quantitation of a specific gene by monitoring the increase in fluorescence of a gene-specific, dye-labeled oligonucleotide probe. Probes for target and reference genes were labeled at the 5′-end with a 6-carboxyfluorescein (6FAM) reporter dye and at the 3′-end with a 6-carboxy-N,N,N′,N′-tetramethylrhodamine (TAMRA) quencher dye. When the probe was annealed to the target gene, fluorescence of 6FAM was prevented by the close proximity of TAMRA. The exonuclease activity of Taq polymerase released the dyes from the oligonucleotide probe by displacing the probe from the target sequence resulting in fluorescence excitation in direct proportion to the amount of target message present. Data analysis was performed using the Sequence Detection System software from Applied Biosystems.
# All primers and probes were designed using Primer Express software supplied with the 7700 Sequence Detection System and synthesized by Applied Biosystems. Standard curves using 5-fold dilutions of total RNA (from 200 ng to 320 pg) were performed to determine the efficiency of each primer/probe set in the TaqMan reaction prior to the analysis of the experimental samples. Primer/probe sets were designed from known sequences of rat genes to be analyzed. All target gene values were normalized to a reference gene, constitutively expressed cyclophilin. Primer/probe set sequences can be found in Table 8.
# RNA was extracted from frozen (−80° C.) rat heart tissue using the Totally RNA Isolation Kit (Ambion, Inc., Austin, Tex.). Tissue was crushed using a stainless steel mortar and pestle, which had been chilled to −80° C. and transferred to a dounce homogenizer (Kontes, Vineland, N.J.) containing 3-10 mL cold denaturation buffer. Tissue was homogenized and transferred to a sterile, 15 mL polypropylene centrifuge tube. An equal volume of phenol:chloroform:isoamyl alcohol (25:24:1) was added, samples were shaken vigorously for 1 min, and incubated on ice for at least 15 min. Samples were centrifuged for 30 min at 10,000 g. The aqueous phase was removed, 1/10 volume of a sodium acetate solution (3.0 M NaOAc pH 4.5) was added, samples were shaken or inverted for 10 seconds, and acid-phenol (premixed with isoamyl alcohol):chloroform (5:1, Ambion, Inc.) was added at an volume equivalent to the starting sample volume. Samples were shaken vigorously for 1 min, followed by a 15-min incubation on ice, and centrifuged for 30 min at 10,000 g. The aqueous phase removed and placed in a clean polypropylene tube. An equal volume of isopropanol (Sigma, St. Louis, Mo.) was added and the samples were mixed and incubated overnight at −20° C. The samples were centrifuged for 30 min at 10,000 g, the supernatant was removed and the RNA pellet was resuspended in DNAse/RNAse-free water. Samples were frozen at −80° C. for at least 2 hours, thawed on wet ice, and diluted for quantitation.
smiles,measurement,setting,value
C[C@]12CCC(=O)C=C1CC[C@@H]1[C@@H]2[C@@H](O)C[C@]2(C=O)[C@@H](C(=O)CO)CC[C@@H]12 [aldosterone],Systolic Blood Pressure,"[1]; Day 3, mean ± SEM of values every 5 min over 24-hour period",132 ± 6 mmHg
same,Systolic Blood Pressure,"[1]; Day 5, mean ± SEM of values every 5 min over 24-hour period",137 ± 4 mmHg
same,Systolic Blood Pressure,"[1]; Day 6, mean ± SEM of values every 5 min over 24-hour period",148 ± 5 mmHg
same,Systolic Blood Pressure,"[1]; Day 7, mean ± SEM of values every 5 min over 24-hour period",155 ± 5 mmHg
same,Systolic Blood Pressure,"[1]; Day 8, mean ± SEM of values every 5 min over 24-hour period",156 ± 4 mmHg
same,Systolic Blood Pressure,"[1]; Day 9, mean ± SEM of values every 5 min over 24-hour period",164 ± 5 mmHg
same,Systolic Blood Pressure,"[1]; Day 11, mean ± SEM of values every 5 min over 24-hour period",171 ± 6 mmHg
same,Systolic Blood Pressure,"[1]; Day 12, mean ± SEM of values every 5 min over 24-hour period",178 ± 6 mmHg
same,Systolic Blood Pressure,"[1]; Day 13, mean ± SEM of values every 5 min over 24-hour period",182 ± 6 mmHg
same,Systolic Blood Pressure,"[1]; Day 15, mean ± SEM of values every 5 min over 24-hour period",181 ± 5 mmHg
same,Systolic Blood Pressure,"[1]; Day 16, mean ± SEM of values every 5 min over 24-hour period",187 ± 6 mmHg
same,Systolic Blood Pressure,"[1]; Day 17, mean ± SEM of values every 5 min over 24-hour period",195 ± 7 mmHg
same,Systolic Blood Pressure,"[1]; Day 18, mean ± SEM of values every 5 min over 24-hour period",196 ± 6 mmHg
same,Systolic Blood Pressure,"[1]; Day 19, mean ± SEM of values every 5 min over 24-hour period",200 ± 6 mmHg
same,Systolic Blood Pressure,"[1]; Day 20, mean ± SEM of values every 5 min over 24-hour period",203 ± 5 mmHg
same,Systolic Blood Pressure,"[1]; Day 21, mean ± SEM of values every 5 min over 24-hour period",208 ± 4 mmHg
same,Systolic Blood Pressure,"[1]; Day 22, mean ± SEM of values every 5 min over 24-hour period",209 ± 4 mmHg
same,Systolic Blood Pressure,"[1]; Day 23, mean ± SEM of values every 5 min over 24-hour period",208 ± 4 mmHg
same,Systolic Blood Pressure,"[1]; Day 24, mean ± SEM of values every 5 min over 24-hour period",210 ± 3 mmHg
same,Systolic Blood Pressure,"[1]; Day 25, mean ± SEM of values every 5 min over 24-hour period",210 ± 4 mmHg
same,Systolic Blood Pressure,"[1]; Day 26, mean ± SEM of values every 5 min over 24-hour period",210 ± 3 mmHg
same,Systolic Blood Pressure,"[1]; uninephrectomized Sprague-Dawley rats, 1% NaCl-0.3% KCl, aldosterone infusion, eplerenone 100 mg/kg/day, up to 30 days, listed as Aldosterone+salt",progressive increase in blood pressure with time
same,Systolic Blood Pressure,"[1]; uninephrectomized Sprague-Dawley rats, 1% NaCl-0.3% KCl, aldosterone infusion, eplerenone 100 mg/kg/day, up to 30 days, listed as Aldosterone/salt",induced severe hypertension
same,"Osteopontin, Mean",[2]; 14 days of treatment,6.56 AU
same,"Osteopontin, Mean",[2]; 30 days of treatment,13.27 AU
same,Osteopontin,"[2]; 7 days of treatment, listed as Aldosterone + salt",0.84 AU and 0.95 AU and 1.08 AU
"COC(=O)[C@@H]1CC2=CC(=O)CC[C@]2(C)[C@@]23O[C@@H]2C[C@@]2(C)[C@@H](CC[C@@]24CCC(=O)O4)[C@H]13 [eplerenone, Pregn-4-ene-7,21-dicarboxylic acid, 9,11-epoxy-17-hydroxy-3-oxo-, γ-lactone, methyl ester, (7α, 11α, 17β) -]",Systolic Blood Pressure,"[1]; uninephrectomized Sprague-Dawley rats, 1% NaCl-0.3% KCl, aldosterone infusion, eplerenone 100 mg/kg/day, up to 30 days",significantly reduced
same,Systolic Blood Pressure,"[1]; uninephrectomized Sprague-Dawley rats, 1% NaCl-0.3% KCl, aldosterone infusion, eplerenone 100 mg/kg/day, up to 30 days, listed as eplerenone+aldosterone+salt",significantly reduced at days 8-30
same,"Osteopontin, Mean",[2]; 7 days of treatment,0.75 AU
same,"Osteopontin, Mean",[2]; 14 days of treatment,2.94 AU
same,"Osteopontin, Mean",[2]; 30 days of treatment,2.59 AU
same,Osteopontin,"[2]; 7 days of treatment, listed as Eplerenone + aldosterone + salt",0.54 AU and 0.52 AU and 0.27 AU and 0.60 AU and 0.96 AU and 0.75 AU
same,Osteopontin,"[2]; 14 days of treatment, listed as Eplerenone + aldosterone + salt",1.00 AU and 0.77 AU and 1.59 AU and 0.72 AU and 0.99 AU
same,Osteopontin,"[2]; 30 days of treatment, listed as Eplerenone + aldosterone + salt",1.28 AU
same,Osteopontin mRNA expression in myocardium,"[2]; time course 7, 14, 30 days, eplerenone 100 mg/kg/day",significantly reduced; also recorded: inhibition of early time-course expression of myocardial osteopontin
